According to patent publication US10618904B2 (priority 2016, dated 2020):
In brackets after ≈: the same amount, converted by molar mass. Several values for one entry are separate records, joined by “and”; a condition that tells them apart may be missing. Equal entries are not always repeated. Where two headings read alike, the source gives them in different places.

Columns and labels:
[1] = Activity of degradation impurity relative to compound of formula (I); settings: fraction of parent activity
Procedure: [drawing 4] the impurity having an activity which is 1/300 of that of the compound of formula (I). […] Whether the stability is good or not is also a key factor in selecting the crystal form of the compound. Accordingly, it is preferred in the present invention that the hydrobromide of the compound of the formula (I) is present in the form of α crystal form. […] In the differential scanning calorimetry of the α crystal form, there is a melting endothermic peak at 170° C.±2° C. Therefore, in the present invention, the structure of the α crystal form is defined by the above-mentioned powder diffraction characteristic peaks and DSC melting peak, and on the basis of this definition, the α crystal form can be clearly distinguished from other three crystal forms.

[2] = Solubility in water of screened salts (Table 2)
From the text: (§1) In order to achieve the above water solubility goal, the inventors have conducted studies from various aspects, e.g., crystal forms of existing salts, preparation excipients, formation of new salt types, etc., hoping to find a feasible means that can improve water solubility while ensuring better druggability.

[3] = Hygroscopicity of screened salts (Table 2); assay type: physicochemical
From the text: as §1

[4] = cited from earlier work
[5] = prior art information; cited from earlier work
[6] = statement of CN103221414B / CN201280003321.6, cited from earlier work
[7] = 40 degrees, RH75% closed, 4 weeks
[8] = 40 degrees, RH75% closed and 60 degrees open, 34 days

For `Cc1cnc2n1-c1ccc(Br)cc1C(c1ccccn1)=N[C@H]2CCC(=O)O`, the “activity relative to that of the compound of formula (I)” value [1] was 1/300.

For `COC(=O)CC[C@@H]1N=C(c2ccccn2)c2cc(Br)ccc2-n2c(C)cnc21`, the solubility ([2]; water) was > 100 mg/mL.

In the case of `O=S(=O)(O)c1cccc2c(S(=O)(=O)O)cccc12` [1,5-naphthalene disulfonate], the “Solubility in water” value [2] is reported as 1 mg/mL and the “Hygroscopicity (%)” value [3] is reported as 15.9%.

With `COC(=O)CC[C@@H]1N=C(c2ccccn2)c2cc(Br)ccc2-n2c(C)cnc21.O=S(=O)(O)O` [(bi)sulfate form 1] the “Hygroscopicity (%)” value [3] was 0.1%.

For `COC(=O)CC[C@@H]1N=C(c2ccccn2)c2cc(Br)ccc2-n2c(C)cnc21.O=S(=O)(O)O` [(bi)sulfate form 2], the “Solubility in water” value [2] was >100 mg/mL and the “Hygroscopicity (%)” value [3] was 24.9%.

In the case of `COC(=O)CC[C@@H]1N=C(c2ccccn2)c2cc(Br)ccc2-n2c(C)cnc21.Cl` [Hydrochloride], the “Solubility in water” value [2] is reported as >100 mg/mL and the “Hygroscopicity (%)” value [3] is reported as 2.8%.

For `COC(=O)CC[C@@H]1N=C(c2ccccn2)c2cc(Br)ccc2-n2c(C)cnc21.O=S(=O)(O)c1ccccc1` [Remimazolam besylate], the degradation [4, 7] is listed as 0.5% and the Solubility in water [5] is listed as 8.3 mg/mL.

In the case of `COC(=O)CC[C@@H]1N=C(c2ccccn2)c2cc(Br)ccc2-n2c(C)cnc21` [Remimazolam esylate], the degradation [4, 7] is listed as 0.2% and the Solubility in water [5] is listed as 7.8 mg/mL (≈ 17.8 mM).

For `COC(=O)CC[C@@H]1N=C(c2ccccn2)c2cc(Br)ccc2-n2c(C)cnc21.Cc1ccc(S(=O)(=O)O)cc1` [Remimazolam tosylate], the “toxicity compared with besylate / benzene sulfonic acid” value [6] is listed as “less toxic than benzene sulfonic acid”, the “toxicity compared with besylate / benzene sulfonic acid” value ([6]; listed as tosylate of the compound of the formula (I)) is listed as “less toxic than besylate” and the Solubility in water [5] is listed as ~10 mg/mL and ~11 mg/mL.

In the case of `COC(=O)CC[C@@H]1N=C(c2ccccn2)c2cc(Br)ccc2-n2c(C)cnc21` [Remimazolam, methyl 3-[(4s)-8-bromo-1-methyl-6-(2-pyridyl)-4H-imidazol[1,2-a][1,4]benzodiazepine-4-yl] propionate], the “Solubility in water (mg/mL)” value [2] is given as “almost”, the “Hygroscopicity (%)” value ([3]; listed as Free base) is given as 1.7% and the appearance change [4, 8] is given as “yellowing at 40 degrees, RH75% closed and 60 degrees”. The degradation [4, 8] was 1.5-8%, the stability of sample ([4]; 40° C./75% relative humidity (open), reported in CN101501019) was “deliquescent, discolored, and significantly reduced in content” and the Solubility in water [5] was “Almost insoluble in water”.

In the case of `COC(=O)CC[C@@H]1N=C(c2ccccn2)c2cc(Br)ccc2-n2c(C)cnc21` [crystal form 1], the “Solubility in water” value [2] is reported as >100 mg/mL and the “Hygroscopicity (%)” value ([3]; listed as Hydrobromide crystal form 1) is reported as 4.6%.

In the case of `COC(=O)CC[C@@H]1N=C(c2ccccn2)c2cc(Br)ccc2-n2c(C)cnc21` [crystal form 2], the “Solubility in water” value [2] is reported as >100 mg/mL.

For `COC(=O)CC[C@@H]1N=C(c2ccccn2)c2cc(Br)ccc2-n2c(C)cnc21` [crystal form 3], the “Solubility in water” value [2] was >100 mg/mL and the “Hygroscopicity (%)” value ([3]; listed as Hydrobromide crystal form 3) was 5%.

In the case of `COC(=O)CC[C@@H]1N=C(c2ccccn2)c2cc(Br)ccc2-n2c(C)cnc21` [α crystal form], the “Solubility in water” value [2] is reported as >100 mg/mL and the “Hygroscopicity (%)” value ([3]; listed as Hydrobromide crystal form α) is reported as 2.5%.
